Laboratory results reported in patent publication EP0980354B1, “VITAMIN D3 ANALOGS WITH BIS C-20 SIDE CHAINS” (priority 1997, dated 1998).

Key:
[1] = tested on: MCF-7 cells; test: Cell proliferation assay in MCF-7 breast cancer cells (MTT); type: cell-based, human; settings: for IC50: MCF-7 cells, 7 days of culture, MTT
Protocol: MCF-7 cells are human mammary carcinoma cells that are positive for estrogen receptors. The potential activity of vitamin D3 analogs against breast cancer was assessed from inhibition of proliferation of MCF-7 cells in culture.
(§1) MCF-7 cells were plated at 5000 cells/well in 96-well plates and incubated at 37°C in 5% CO2/95% air in Dulbecco's Modified Eagle Medium containing 10% fetal bovine serum 700 nM insulin, 2 mM glutamine, 0.1 mM MEM non-essential amino acids and 1 mM sodium pyruvate. Stock solutions of vitamin D3 analogs were prepared at a concentration of 10 mM in absolute ethanol and stored at -20°C under argon. One day after plating, MCF-7 cells were refed with either control medium or medium containing varying concentrations of the vitamin D3 analog.
For each vitamin D3 analog, the IC50 value was determined from a graph relating the optical density at 570 nm to the concentration used. The IC50 value was defined as the concentration of the vitamin D3 analog corresponding to half-maximal reduction in 570 nm absorbance.

[2] = tested on: postmenopausal osteoporosis; settings: 0.25 microgram twice daily, after 3 years, mild to moderate disease, versus elemental calcium 1000 mg/day; cited from earlier work
[3] = tested on: parathyroid hormone; test: Secondary hyperparathyroidism in the 7/8 nephrectomy rat renal insufficiency model (serum PTH, serum calcium); type: in vivo, Female Sprague Dawley rats; parameters: Final Ca Levels (mg/ml): unit not given here; settings: for PTH pg/ml T=1-T=0 / Final Ca Levels (mg/ml): 7 days, 7/8 nephrectomized rats, serum
Description: • Compound of Formula Ia • 1,25(OH)2 vitamin D3 (control) • Vehicle - Miglyol 812
Female Sprague Dawley rats were anesthesized, their right kidney removed and 2-3 branches of the left renal artery were ligated to achieve 7/8 nephrectomy. They were placed on a high phosphorous diet (0.6% Ca and 0.8 phosphorous). Approximately 3-6 weeks after surgery, rats were bled to screen serum PTH levels and rats with PTH levels between 100-500 pg/ml were selected for the study.
There was a pre-bleed (T=0) and each group was dosed daily for seven days by oral gavage with either the compound of Formula Ia (10, 1 or 0.1 µg/kg/day), vehicle control or […] positive control. Compounds were predissolved in ethanol and diluted with vehicle (Miglyol 812) followed by evaporation of the ethanol.
After the last day of dosing, the animals were bled again (T=1) and sacrificed. Serum PTH assays were done with Nichols Institute Diagnostic Kit #40-2240. Serum calcium assays were done with Sigma Diagnostic Kit #587 with o-cresophthalein. Serum creatinine assays were done with Sigma Diagnostic Kit #1600-320 with ammonium molybdate.

[4] = tested on: ZR-75 cells; test: Cell proliferation assay in ZR-75 breast cancer cells (MTT); type: cell-based, human; settings: for IC50: ZR-75 cells, 10 days of culture, MTT
Protocol: ZR-75 cells are human mammary carcinoma cells that are positive for estrogen receptors. The potential activity of vitamin D3 analogs against breast cancer was assessed from inhibition of proliferation of ZR-75 cells in culture.
as §1, with “ZR-75” for “MCF-7”, “12,500” for “5000”, “24-well” for “96-well”, “RPMI medium” for “Dulbecco's Modified Eagle Medium”, “and” for “700 nM insulin,”, “glutamine.” for “glutamine, 0.1 mM MEM non-essential amino acids and 1 mM sodium pyruvate.”
The IC50 value was defined as the concentration of the vitamin D3 analog corresponding to half-maximal reduction in 570 nm absorbance.

Row | Compound | IC50 ([1]; Homo sapiens, MCF7, 168 h) [nM] | lower rate of new vertebral fractures [2] [fold] | PTH pg/ml T=1-T=0 ([3]; 0.1 µg/kg/day po) [pg/mL] | IC50 ([4]; Homo sapiens, ZR75, 240 h) [nM] | IC50 [1] [nM] | potency relative to 1,25-dihydroxy-cholecalciferol in inhibition of MCF-7 breast cells growth ([1]; ratio of IC50 values) | Final Ca Levels (mg/ml) ([3]; 0.1 µg/kg/day po) | Final Ca Levels (mg/ml) ([3]; 1 µg/kg/day po) | PTH pg/ml T=1-T=0 ([3]; 1 µg/kg/day po) [pg/mL] | Final Ca Levels (mg/ml) ([3]; 10 µg/kg/day po) | PTH pg/ml T=1-T=0 ([3]; 10 µg/kg/day po) [pg/mL] | suppressing the elevated levels of parathyroid hormone ([3]; compared with 1,25(OH)2 vit. D3, summary in words) | elevated calcium levels ([3]; summary in words) | IC50 [4] [nM] | potency relative to 1,25-dihydroxy-cholecalciferol in inhibition of ZR-75 breast cells growth ([4]; ratio of IC50 values)
1 | C=C1/C(=C\C=C2/CCC[C@]3(C)[C@@H]([C@H](C)CCCC(C)(C)O)CC[C@@H]23)C[C@@H](O)C[C@@H]1O [1,25(OH)2 vit. D3, 1,25-dihydroxyvitamin D3, reference compound] | 40 | 3 | -66 | 13 |  |  |  |  |  |  |  |  |  |  | 
2 | (1α,3β,5Z,7E)-21-(3-hydroxy-3-methylbutyl)-9,10-Secocholesta-5,7,10, (19)-triene-1,3,25-triol [Formula Ia] |  |  | 112 |  | 0.8 | approximately 50 times | 10.20 | 10.35 | -124 | 11.97 | -132 | more effective than 1,25(OH)2 vit. D3 | without causing elevated calcium levels | 0.3 | more than 40 times
